Measurements: US4994554A, “Probursin” (Immunobiology Research Institute, Inc., priority 1988, dated 1991)
Where no end group is shown, it is not given here.

What was measured:
[1] = test system: SV40 transformed hamster beta cells (HIT); test: Growth hormone inhibition: GRF-stimulated 3H inositol phosphate (IP) release and growth hormone (GH) accumulation, RIA of supernatant; type: cell-based; conditions: for [GH] / [IP]: 15 min
Method: An assay was performed to study the effect of probursin in combination with growth hormone releasing factor (GRF) as this combination effects the release of ^3 H inositol phosphate (IP) and growth hormone (GH) accummulation in SV40 transformed hamster beta cells (HIT). The experiment was performed according to the procedures described in M. J. Berridge et al, cited above.
Briefly described, commercially available HIT cells were incubated at 37° C. for 1 hour in metabolic RPMI medium with 5% fetal calf serum (FCS). GRF in varying concentrations indicated in the Table below was added to the cell culture and incubated for 15 minutes at 37° C. The cells were then centrifuged at 800 rpm and the supernatant collected. Levels of GH and IP were measured in the supernatant by radioimmunoassay (RIA) also according to Berridge et al. These measurements formed the GRF control.
The same procedure was followed without the addition of GRF and is indicated below as the control.
Similarly, to indicate the effect of probursin on GRF, the procedure above was followed except that GRF and probursin at the appropriate concentrations indicated in the Table below were added to the cells together and followed by 15 minutes incubation and centrifugation. When the supernatant was measured by RIA as described above, the resulting concentrations of IP and GH were determined as illustrated in the Table below.

[2] = test system: Daudi cells; test: Cyclic GMP assay in Daudi cells; type: cell-based; conditions: 0 to 1000 micrograms/ml, FIG. 5A
Method: Daudi cells were freshly seeded and grown for 2 days with harvesting as described in T. Audhya et al, Arch. Biochem Biophys., 234:167-177 (1984). The cells were washed 3 times in PBS and resuspended in RPMI 1640 at a concentration of 1.0×10^7 cells/ml and were allowed to equilibrate at 37° C. for 30 minutes before the addition of the test compounds (25 ul) of bursin and probursin, and control peptides porcine insulin (A), equine myoglobin (B) and bovine growth hormone (C). The incubation was allowed to proceed in a shaking water bath for 4-5 minutes and was then terminated by addition of 1 ml ice-cold TCA (10%).
The cells in TCA were homogenized and sonicated to release cyclic nucleotide. The suspension was centrifuged at 3000×g for 20 minutes at 4° C. The resulting precipitate was dissolved in 0.1 N NaOH to determine the protein content. TCA was removed from the supernatant fraction by extracting 4 times with 5 ml of water-saturated diethyl ether. […]
Dose-response curves from 0 to 1000 micrograms/ml were evaluated for bursin, probursin and controls. […] A threshold activity was determined for each peptide tested. […] Test results were considered positive if the level of cyclic GMP was greater than 1.52 times (2 standard deviations) that determined for the parallel negative control.

[3] = test system: MOPC-315 cells; test: Cyclic GMP assay in MOPC-315 cells; type: cell-based; conditions: 0 to 1000 micrograms/ml, FIG. 5B
[4] = test system: Anti-bursin antiserum; test: ELISA blocking of anti-bursin antiserum binding by absorbants; parameters: species or system rabbit; conditions: FIG. 3B
Method: Antisera were tested for activity in the following ELISA protocol. The assays were performed according to the method of Voller et al, Bull. WHO, 53:55 (1976). Briefly, polyvinyl chloride microtiter plates (Fisher Scientific, Springfield, N.J.) were coated overnight with 100 ul/well of 10 ug/ml solution of tetramer of probursin in 0.1 M phosphate buffer, pH 7.2. Plates were washed and were postcoated with 150 ul/well of 0.5 percent bovine serum albumin in PBS, pH 7.2, for one hour at room temperature. Plates were washed, dried at 37° C. for 6-24 hours and sealed in dessicated packages and stored at 4° C.
Antisera to be tested were diluted in PBS containing 0.05 percent Tween 20. One hundred ul of the diluted sera were added per well in triplicates. Normal rabbit or mouse serum was used as the negative control. After 60 minutes of incubation at room temperature the plates were washed three times with PBS Tween-20. One hundred ul of alkaline phosphatase conjugated to affinity-purified goat anti-rabbit IgG (heavy and light chains) diluted 1:2000 in PBS Tween-20 were added to each well. The plates were incubated at room temperature for 60 minutes. […] After 30 minutes of incubation at room temperature the reaction was terminated with the addition of 50 ul/well of 5 N NaOH and the optical density was read at 410 nm. […]

[5] = GRF (0.1 nM) + Probursin (.1 μM)
[6] = GRF (1 nM) + Probursin (0.1 μM)
[7] = GRF (1 nM) + Probursin (1.0 μM)
[8] = GRF (10 nM) + Probursin (10.0 μM)
[9] = GRF 0.1 nM alone, HIT cell supernatant
[10] = GRF 1 nM alone, HIT cell supernatant
[11] = GRF 10 nM alone, HIT cell supernatant

Row | blocking of anti-bursin antiserum binding [4] | Substance | [GH] [1, 5] | [IP] [1, 5] | [GH] [1, 6] | [IP] [1, 6] | [GH] [1, 7] | [IP] [1, 7] | [GH] [1, 8] | [IP] [1, 8] | effect on growth hormone releasing factor action (IP and GH) ([1]; HIT cells, summary in words) | release of growth hormone ([1]; summary in words, refers to Example 6) | induction of intracellular cyclic GMP (dose-response) [2] | induction of intracellular cyclic GMP (dose-response) [3] | [GH] [1, 9] | [IP] [1, 9] | [GH] [1, 10] | [IP] [1, 10] | [GH] [1, 11] | [IP] [1, 11]
1 | blocked | FFWKTKPRKHGGRR [Probursin, Phe-Phe-Trp-Lys-Thr-Lys-Pro-Arg-Lys-His-Gly-Gly-Arg-Arg] | 35 ± 4 n/ml | 239 ± 13 cpm | 480 ± 31 n/ml | 1911 ± 310 cpm | 77 ± 6 n/ml | 444 ± 22 cpm | 29 ± 3 n/ml | 382 ± 16 cpm | marked suppression | inhibit | active | active |  |  |  |  |  | 
2 |  | GRF: growth hormone releasing factor, stimulus in HIT cell assay (YADAIFTNSYRKVLGQLSARKLLQDIMSRQQGESNQERGARARL; ends and bridges not checked; UniProt P01286 32-75, looked up) [reference compound] |  |  |  |  |  |  |  |  |  |  |  |  | 162 ± 4 n/ml | 489 ± 19 cpm | 648 ± 26 n/ml | 2810 ± 290 cpm | 1162 ± 84 n/ml | 8962 ± 821 cpm
